The text below walks through data of patent publication US11679110B2, “Methods of treating disorders using CSF1R inhibitors” (Deciphera Pharmaceuticals, LLC, priority 2018, dated 2023).

The structures appear in SMILES notation.

Data set [1] concerns diffuse-type tenosynovial giant cell tumor. Put plainly: Tumor response and symptoms in DTGCT patients (case studies), RECIST version 1.1. The data set is classed as in vivo, human. The source says: Tumor response will be assessed by tumor type using the following criteria: for solid tumors and DTGCT: RECIST, Version 1.1; and for bone-only disease: a new lesion(s) identified by bone scan will be considered as disease progression.
Additional descriptions of case studies of patients with DTGCT treated within this study are provided below: […]

Data set [2] in a line: Dose escalation 3+3 design, DLT / maximum tolerated dose in patients. Conditions: through Cohort 7. Format: in vivo, human. From the text: A minimum of 3 patients is enrolled in each dose level cohort. If a patient experiences a DLT during Cycle 1, then the cohort will be expanded to 6 patients. If ≥2 patients out of 3 to 6 patients experience one or more dose-limiting toxicities (DLT(s)) during Cycle 1, dose escalation will end, and a lower dose level cohort will be expanded for determination of the maximum tolerated dose (MTD). If no additional patients experience a DLT in the expanded cohort, the dose level will be escalated. Decisions of dose escalation and the dose level of the next cohort will be determined. A patient will be evaluable in the dose escalation phase if the patient either experienced a DLT during Cycle 1 or received ≥80% of planned doses of study drug in Cycle 1. After Dose Escalation Cohort 6, a review of safety, PK and PD data will determine future escalation cohorts. No more than 50% increases in a total dose given in the first cycle will be allowed from the previous cohort.
The MTD will be defined as the highest dose level at which no more than 1 of 6 DLT-evaluable patients experiences a DLT(s) in Cycle 1 during dose escalation. An additional, lower, intermediate dose level may be explored to determine a recommended phase 2 dose (RP2D). The RP2D will be the MTD or a biologically active or maximally feasible dose lower than the MTD. Different RP2Ds may be determined for solid tumor and DTGCT patients. […]

A further data set concerns intratumoral macrophages. Conditions: MC38 mice; oral QD; 21 days.
The conditions of data set [3]: rat, in vivo.

`Cc1nc(-c2cnc(NC(C)C)n(C)c2=O)ccc1Oc1ccnc(-c2cnn(C)c2)c1` [Compound 1, 2-(isopropylamino)-3-methyl-5-(6-methyl-5-((2-(1-methyl-1H-pyrazol-4-yl)pyridin-4-yl)oxy)pyridin-2-yl)pyrimidin-4(3H)-one]: the symptoms result in data set [1] (DTGCT Patient 1, Cohort 5) was “Improved pain and swelling and effusion were nearly resolved in the first cycle”; in data set [1] (DTGCT Patient 2, Cohort 5) it was “pain improvement, increased range of motion, and less stiffness”; in data set [1] (DTGCT Patient 3, Cohort 5) it was “rapid symptom improvement, with less pain and swelling and improved range of motion after the first cycle”. Also, the “decrease in tumor size from baseline” value in data set [1] (DTGCT Patient 1, Cohort 5 (30 mg twice weekly maintenance), C3D1) is 48%; in data set [1] (DTGCT Patient 1, Cohort 5, C5D1), 61%; in data set [1] (DTGCT Patient 1, Cohort 5, C7D1), 75%; in data set [1] (DTGCT Patient 1, Cohort 5, C10D1) it was 84%; in data set [1] (DTGCT Patient 2, Cohort 5, C3D1), 25%; in data set [1] (DTGCT Patient 3, Cohort 5, C3D1) it was 24%. In addition, the tumor response entry in data set [1] (DTGCT patient) was “up to 84%”. For the same molecule, the MTD result in data set [2] is “has not been reached”. For the same molecule, in the data set with intratumoral macrophages, the “reduction in intratumoral macrophages compared to vehicle or isotype controls (as a percent of all cells in the tumor)” value is greater than 80%. Further, the STD10 in data set [3] (Sprague-Dawley, 13 weeks) is given as 7.5 mg/kg/day. The “increases in AST, ALT, GLDH and ALP activities” value in data set [3] is given as “minimal or mild”.
